This is an account of results in article PMC9032718, “Eltrombopag as an Allosteric Inhibitor of the METTL3-14 Complex Affecting the m^6A Methylation of RNA in Acute Myeloid Leukemia Cells” (Pharmaceuticals, 2022).

In assay [1] the target is T1, METTL3-14 complex (Homo sapiens, UniProt Q86U44).
T1 construct: genes encoding the full-length and MTase domain of human METTL3; METTL3-14 FL: full length of METTL3-14; 10x His (thrombin-cleavable) (cleaved yes); made in house; host or cells: Trichoplusia ni (Hi5) cells co-infected with two baculoviruses (virus made in Sf9)
T1 sequence (Q86U44 whole entry, the tested form may be a part): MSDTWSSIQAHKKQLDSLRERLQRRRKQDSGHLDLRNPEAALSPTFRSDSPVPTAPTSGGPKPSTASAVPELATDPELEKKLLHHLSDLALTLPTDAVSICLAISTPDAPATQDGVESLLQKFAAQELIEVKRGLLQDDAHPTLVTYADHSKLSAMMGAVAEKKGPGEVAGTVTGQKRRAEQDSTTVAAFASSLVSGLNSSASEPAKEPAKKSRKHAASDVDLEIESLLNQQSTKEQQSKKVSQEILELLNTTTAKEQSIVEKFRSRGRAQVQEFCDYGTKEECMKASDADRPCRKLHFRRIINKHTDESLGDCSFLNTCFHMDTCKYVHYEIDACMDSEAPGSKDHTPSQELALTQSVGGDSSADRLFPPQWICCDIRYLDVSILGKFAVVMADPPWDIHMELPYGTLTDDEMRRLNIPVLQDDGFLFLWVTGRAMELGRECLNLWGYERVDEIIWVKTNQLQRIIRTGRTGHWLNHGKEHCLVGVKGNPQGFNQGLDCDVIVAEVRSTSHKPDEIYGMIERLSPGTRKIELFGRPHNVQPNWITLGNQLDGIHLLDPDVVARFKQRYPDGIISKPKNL
T1 sequence (Q9HCE5 whole entry partner, the tested form may be a part): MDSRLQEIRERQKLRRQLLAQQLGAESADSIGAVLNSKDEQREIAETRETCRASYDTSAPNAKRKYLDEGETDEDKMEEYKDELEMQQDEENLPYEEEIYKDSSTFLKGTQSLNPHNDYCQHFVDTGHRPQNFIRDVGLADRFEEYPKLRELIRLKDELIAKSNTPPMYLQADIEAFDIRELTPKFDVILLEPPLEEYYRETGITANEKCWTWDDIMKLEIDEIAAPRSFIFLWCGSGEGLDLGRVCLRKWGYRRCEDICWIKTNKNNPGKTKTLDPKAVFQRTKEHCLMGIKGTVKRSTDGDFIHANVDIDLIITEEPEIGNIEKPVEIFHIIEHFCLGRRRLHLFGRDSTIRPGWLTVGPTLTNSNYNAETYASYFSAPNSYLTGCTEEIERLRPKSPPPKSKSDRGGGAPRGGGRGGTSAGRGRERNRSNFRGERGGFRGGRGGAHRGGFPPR
As to the kind of experiment: METTL3-14 enzyme-based bioluminescence assay (screening assay). The assay is classed as biochemical. The conditions noted are these: IC50 not affected by SAM 50-1600 nM or RNA 25-800 nM. The protocol:
An enzymatic bioluminescence assay was established to identify the METTL3-14 inhibitor through screening. […] METTL3-14 activity was assessed by measuring the luminescence using a Victor multilabel reader (PerkinElmer, Waltham, MA, USA). The IC50 values were calculated by a nonlinear regression analysis using OriginPro 9.1 software (OriginLab).
To confirm the mechanism of action of eltrombopag in the METTL3-14 complex, 30 nM METTL3-14 and serially diluted eltrombopag were reacted with various concentrations of SAM or RNA substrate and saturating concentrations of the other substrate (3 μM SAM or 2 μM RNA substrate) for 20 min. To evaluate the inhibitory activity in a single form of METTL3 and METTL14, 1 μM of METTL3 and 300 nM of METTL14 were incubated with 1 μM of SAM, 500 nM of RNA substrates, and serially diluted eltrombopag for 5 h. To measure the inhibitory activity in the truncated form of the METTL3-14 complex, 1 μM of the truncated METTL3-14 complex was reacted with 1 μM of SAM, 500 nM of RNA substrates, and serially diluted eltrombopag for 5 h.

Assay [2] deals with T1, METTL3-14 complex. As to the kind of experiment: Mass spectrometry based METTL3-14 enzyme based assay (m^6A level of single strand RNA substrate). The assay is classed as biochemical. Conditions: read-out: IC50, METTL3-14 inhibition, mass spectrometric enzyme based assay. The protocol: The 30 nM of METTL3-14 was incubated with 300 nM of SAM, 300 nM of RNA substrates, and serially diluted compounds at 23 °C for 1 h as described above. The enzymatic reaction was stopped by heating at 80 °C for 10 min and centrifuged at 15,000× g for 10 min. Then, the reacted RNA in the supernatant was digested to nucleosides by using 2 units of nuclease P1 (NEB, Ipswich, MA, USA) and dephosphorylated by using 1 unit of alkaline phosphatase (NEB) at 37 °C for 2 h.
The produced nucleosides were detected by reversed-phase high-performance liquid chromatography on an ACQUITY BEH C18 column ([…], 2.1 mm × 50 mm; Waters) coupled with mass spectrometry detection using an EVOQ Elite ER LC-TQ (Bruker, Billerica, MA, USA). The adenosine and m^6A were quantified using an MRM transition as follows: m/z = 267.9 -> 136.1 and m/z = 282.1 -> 150.1, respectively. (Retention time 5 min). The m^6A/A nucleoside ratio of the eltrombopag-treated sample was normalized to the corresponding value of the DMSO treated negative control. The IC50 values were calculated by a nonlinear regression analysis using OriginPro 9.1 software (OriginLab).

The target of another assay is T2, DOT1L (Homo sapiens, UniProt Q8TEK3).
T2 construct: purchased Reaction Biology (Malvern, PA, USA), contract assay
T2 sequence (Q8TEK3 whole entry): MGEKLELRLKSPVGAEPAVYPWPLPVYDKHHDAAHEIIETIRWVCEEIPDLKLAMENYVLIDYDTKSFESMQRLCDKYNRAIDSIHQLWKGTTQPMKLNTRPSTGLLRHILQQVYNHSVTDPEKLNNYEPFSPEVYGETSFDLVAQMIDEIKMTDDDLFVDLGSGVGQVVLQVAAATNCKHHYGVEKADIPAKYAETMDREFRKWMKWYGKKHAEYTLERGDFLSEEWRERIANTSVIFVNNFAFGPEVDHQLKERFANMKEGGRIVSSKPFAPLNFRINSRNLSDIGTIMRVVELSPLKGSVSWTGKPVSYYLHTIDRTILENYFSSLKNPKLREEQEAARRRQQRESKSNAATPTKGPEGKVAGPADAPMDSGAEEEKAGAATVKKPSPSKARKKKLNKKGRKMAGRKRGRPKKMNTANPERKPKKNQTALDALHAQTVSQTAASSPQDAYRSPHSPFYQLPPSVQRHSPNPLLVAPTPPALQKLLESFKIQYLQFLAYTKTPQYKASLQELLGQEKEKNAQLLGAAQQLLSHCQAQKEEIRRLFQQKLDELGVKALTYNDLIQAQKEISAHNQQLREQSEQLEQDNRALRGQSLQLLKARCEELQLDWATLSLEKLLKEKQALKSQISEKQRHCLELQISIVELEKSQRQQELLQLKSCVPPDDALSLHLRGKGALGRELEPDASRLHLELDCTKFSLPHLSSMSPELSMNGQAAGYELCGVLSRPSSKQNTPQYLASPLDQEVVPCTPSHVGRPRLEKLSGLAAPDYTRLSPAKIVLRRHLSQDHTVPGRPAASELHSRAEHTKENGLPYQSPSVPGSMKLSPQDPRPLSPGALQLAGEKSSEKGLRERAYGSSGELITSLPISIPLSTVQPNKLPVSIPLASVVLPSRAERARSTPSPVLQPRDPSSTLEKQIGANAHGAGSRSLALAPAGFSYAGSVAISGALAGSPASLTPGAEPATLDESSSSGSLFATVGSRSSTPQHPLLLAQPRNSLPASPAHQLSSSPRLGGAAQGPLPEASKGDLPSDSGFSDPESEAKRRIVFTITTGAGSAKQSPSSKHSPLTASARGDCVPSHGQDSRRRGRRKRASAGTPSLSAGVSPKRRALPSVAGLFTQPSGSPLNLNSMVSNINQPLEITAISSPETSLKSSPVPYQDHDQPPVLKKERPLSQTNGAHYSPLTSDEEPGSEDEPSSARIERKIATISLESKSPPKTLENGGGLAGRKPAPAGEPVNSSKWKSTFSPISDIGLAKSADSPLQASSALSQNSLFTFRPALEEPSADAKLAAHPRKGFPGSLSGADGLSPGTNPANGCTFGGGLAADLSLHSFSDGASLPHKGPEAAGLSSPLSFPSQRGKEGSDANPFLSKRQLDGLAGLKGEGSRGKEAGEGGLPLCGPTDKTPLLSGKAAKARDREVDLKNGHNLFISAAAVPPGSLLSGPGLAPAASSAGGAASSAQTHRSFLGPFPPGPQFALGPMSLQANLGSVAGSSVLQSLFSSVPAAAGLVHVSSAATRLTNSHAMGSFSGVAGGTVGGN
As to the kind of experiment: Methyltransferase selectivity panel (MT HotSpot radioisotope assay), DOT1L. Conditions: 10 μM eltrombopag, DOT1L. It counts as biochemical. The protocol: The selectivity profile of eltrombopag was investigated by testing the level of inhibition in a methyltransferase panel. The inhibition of 7 […] methyltransferase was tested at Reaction Biology (Malvern, PA, USA) using a gold standard radioisotope-based MT assay (MT HotSpot^TM) with 10 μM of eltrombopag in duplicate.

A further assay addresses T3, PRMT1 (Homo sapiens, UniProt Q99873).
T3 construct: purchased Reaction Biology (Malvern, PA, USA), contract assay
As to the kind of experiment: Methyltransferase selectivity panel (MT HotSpot radioisotope assay), PRMT1. Conditions: 10 μM eltrombopag. The assay is classed as biochemical. From the text: The selectivity profile of eltrombopag was investigated by testing the level of inhibition in a methyltransferase panel.

Assay [3] relates to m^6A/A on poly-A+-enriched mRNA of MOLM-13 cells. In words: Quantitative analysis of m^6A level on poly-A+-enriched mRNA by mass spectrometry. The assay is classed as cell-based. The conditions noted are these: Homo sapiens. The protocol: The MOLM-13 cells were seeded in 10 cm^2 dishes at a density of 1.5 × 10^6 cells/mL with 10 mL of complete medium. After 24 h, the plated cells were treated with the vehicle (DMSO) or serial dilutions of eltrombopag and incubated for 24 h. Following incubation in the cell culture incubator, total RNA was extracted using TRIsure^TM (Bioline, Brisbane, Australia) according to the manufacturer’s instructions. Then, poly-A^+-enriched mRNA was purified from the extracted total RNA using the Magnosphere^TM ultrapure mRNA purification kit (Takara, Shiga, Japan). One microgram of mRNA was digested to the nucleosides using 2 units of nuclease P1 (NEB) and dephosphorylated using 1 unit of alkaline phosphatase (NEB) at 37 °C for 2 h.
The produced nucleosides were detected by reversed-phase high-performance liquid chromatography on an ACQUITY BEH C18 column (1.7 μm, 2.1 mm × 50 mm; Waters) coupled with mass spectrometry detection using an EVOQ Elite ER LC-TQ (Bruker). The adenosine and m^6A were quantified using MRM transition as follows: m/z = 267.9 -> 136.1 and m/z = 282.1 -> 150.1, respectively. (Retention time 5 min). The m^6A/A nucleoside ratio of the eltrombopag-treated sample was normalized to the corresponding value of the DMSO treated negative control. The inhibition curves were plotted using OriginPro 9.1 software (OriginLab) and fitted using nonlinear regression analysis.

For a further assay, the system named is MOLM-13 cells. As to the kind of experiment: Combinatorial analysis of AML drugs with eltrombopag (EZ-cytox, Synergyfinder). It counts as cell-based. Conditions: Homo sapiens, MOLM-13; for inhibition at 1.5 µM: MOLM-13, eltrombopag alone 1,500 nM; for inhibition at 3 µM: MOLM-13, eltrombopag alone 3,000 nM; for inhibition at 6 µM: MOLM-13, eltrombopag alone 6,000 nM; for inhibition at 12 µM: MOLM-13, eltrombopag alone 12,000 nM. The protocol:
The MOLM-13 cells were seeded in white 96-well clear bottomed plates with 50 μL of medium (5000 cells/well). The plated cells were treated with serially diluted eltrombopag and current AML drugs, including venetoclax, cytarabine, gilteritinib, and sorafenib, to a final volume of 100 μL and incubated for 72 h at 37 °C. After incubation, 10 μL of EZ-cytox kit reagent from the EZ-cytox cell viability assay kit (DaeiLab) was added to each well and then incubated for 3 h at 37 °C. The absorbance of metabolically active cells was measured at a wavelength of 450 nm using a Victor multilabel reader (PerkinElmer). The synergy scores of each combination were quantified by the HAS model, ZIP model, Loewe additivity model, and Bliss independence models using Synergyfinder software. Positive or negative synergy scores obtained through these models represent synergy and antagonism, respectively.

T3 sequence (Q99873 whole entry): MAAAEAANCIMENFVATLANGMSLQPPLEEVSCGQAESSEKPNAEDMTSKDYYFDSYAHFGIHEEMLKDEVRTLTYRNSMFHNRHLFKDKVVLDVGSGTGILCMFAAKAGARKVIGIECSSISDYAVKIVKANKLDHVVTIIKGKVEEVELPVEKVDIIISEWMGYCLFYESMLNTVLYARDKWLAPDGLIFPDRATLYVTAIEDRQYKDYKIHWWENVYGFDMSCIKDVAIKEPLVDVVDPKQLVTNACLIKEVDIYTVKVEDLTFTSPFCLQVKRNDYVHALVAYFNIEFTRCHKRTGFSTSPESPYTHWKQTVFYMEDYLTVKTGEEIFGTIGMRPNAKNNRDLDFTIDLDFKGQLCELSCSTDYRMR

In general, remaining activity refers to the activity still measured, relative to the control. Lower therefore signals little activity left. In general, inhibition refers to how much of the control response was suppressed. As to `CC1=NN(c2ccc(C)c(C)c2)C(=O)/C1=N\Nc1cccc(-c2cccc(C(=O)O)c2)c1O` [Eltrombopag], the “mode of enzyme inhibition” value at METTL3-14 complex [1] is recorded as “noncompetitive inhibitor”. Further, on METTL3-14 complex [2], the IC50 was determined as 4.55 µM. Further, the remaining activity at 10 µM on DOT1L is 90 ± 2.8%. The remaining activity at 10 µM at PRMT1 was 96.1 ± 3.9%. The inhibition at 40 µM in assay [3] (MOLM-13, 40 μM, 24 h, read-out: maximum m^6A inhibition) was 50%. Besides, the IC50 in assay [3] (MOLM-13, 24 h treatment, read-out: IC50 of m^6A/A reduction on poly-A+-enriched mRNA) worked out at 17.3 ± 3.5 µM. In the assay with MOLM-13 cells (cytarabine matrix (panel C)), the inhibition at 1.5 µM came out at 9.02 ± 5.05%, the inhibition at 3 µM is 24.8 ± 2.76%, the inhibition at 6 µM is 61.6 ± 1.03% and the inhibition at 12 µM was 93.83 ± 0.61%. In the assay with MOLM-13 cells (venetoclax matrix (panel A)), the inhibition at 1.5 µM stood at 13 ± 2.13%, the inhibition at 3 µM is 30 ± 5.01%, the inhibition at 6 µM is 69.4 ± 2.33% and the inhibition at 12 µM turned out to be 94.91 ± 0.86%.
